Measurements from US20020146741A1, “Processes for receptpor screening” (priority 2000, published 2002).

Tests used:
GR [1] = target: T1, GR (Homo sapiens, UniProt P04150); test: FP-based competitive ligand binding assay; set-up: GR was produced as a full length protein in insect cells and partially purified using ion exchange chromatography; made in house; host or cells: insect cells (baculovirus); details: for Ki: GR 4 nM, fluorescein-dexamethasone probe, 1-hour incubation at room temperature; for RBA: relative binding affinity, dexamethasone = 100
T1 sequence (P04150 1-777): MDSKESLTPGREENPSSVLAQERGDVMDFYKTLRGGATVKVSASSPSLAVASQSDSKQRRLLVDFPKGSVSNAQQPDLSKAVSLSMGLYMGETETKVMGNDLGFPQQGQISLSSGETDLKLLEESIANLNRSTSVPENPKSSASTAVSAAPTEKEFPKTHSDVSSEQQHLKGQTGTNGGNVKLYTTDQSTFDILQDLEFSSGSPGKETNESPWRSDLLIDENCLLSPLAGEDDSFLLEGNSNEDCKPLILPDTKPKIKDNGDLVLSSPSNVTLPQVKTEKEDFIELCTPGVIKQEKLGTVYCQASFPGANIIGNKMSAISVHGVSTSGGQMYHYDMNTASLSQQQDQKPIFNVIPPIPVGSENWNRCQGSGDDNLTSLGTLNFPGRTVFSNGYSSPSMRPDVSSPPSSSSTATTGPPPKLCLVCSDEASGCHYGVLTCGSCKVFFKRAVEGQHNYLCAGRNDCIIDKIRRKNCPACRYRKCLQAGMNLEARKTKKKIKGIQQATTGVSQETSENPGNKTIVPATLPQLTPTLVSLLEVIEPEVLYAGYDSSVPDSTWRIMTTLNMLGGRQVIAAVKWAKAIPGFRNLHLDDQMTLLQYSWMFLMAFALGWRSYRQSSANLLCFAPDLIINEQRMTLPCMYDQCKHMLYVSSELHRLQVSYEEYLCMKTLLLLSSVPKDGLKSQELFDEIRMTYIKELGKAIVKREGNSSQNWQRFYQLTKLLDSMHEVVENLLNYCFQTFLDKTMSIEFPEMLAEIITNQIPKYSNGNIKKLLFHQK
Method: FIG. 3A and B are graphs showing FP-based competition assays with recombinant GR (A) and PR-LBD (B). Serial dilutions of test steroids were prepared. […] Final incubation conditions were similar to those described in FIG. 3. The final concentration of GR used was 4 nM, and for PR-LBD it was 8 nM. After a 1-hour incubation at room temperature, the fluorescence polarization of each well was read, using wells lacking fluor as blanks.
The other criteria used for validating a fluorescent steroid conjugate is the ability of known receptor ligands to compete with the fluor for binding to the receptor.

GR [2] = target: T1, GR; details: literature RBA, dexamethasone = 100; cited from earlier work

SMILES	Ki (GR [1]) [nM]	RBA (GR [1])	Literature Value (GR [2])
C[C@]12CCC(=O)C=C1CC[C@@H]1[C@@H]2[C@@H](O)C[C@@]2(C)[C@H]1CC[C@]2(O)C(=O)CO [Cortisol]	–	24	33
CC1(C)O[C@@H]2C[C@H]3[C@@H]4C[C@H](F)C5=CC(=O)C=C[C@]5(C)[C@H]4[C@@H](O)C[C@]3(C)[C@]2(C(=O)CO)O1 [Flunisolide]	1	73	100
CC(=O)OCC(=O)[C@@]12OC(C)(C)O[C@@H]1C[C@H]1[C@@H]3C[C@H](F)C4=CC(=O)C=C[C@]4(C)[C@@]3(F)[C@@H](O)C[C@@]12C [Fluocinonide]	4.4	17	–

Continued, in another order:

Ki (GR [1]) [nM]	RBA (GR [1])	SMILES	Literature Value (GR [2])
1.9	40	CC(=O)OCC(=O)[C@@]12OC3(CCCC3)O[C@@H]1C[C@H]1[C@@H]3CCC4=CC(=O)C=C[C@]4(C)[C@@]3(F)[C@@H](O)C[C@@]12C [Amcinonide]	–
0.9	–	CC1(C)O[C@@H]2C[C@H]3[C@@H]4CCC5=CC(=O)C=C[C@]5(C)[C@@]4(F)[C@@H](O)C[C@]3(C)[C@]2(C(=O)CO)O1 [Triamcinolone acetonide]	–
